Measured values from US11214803B2, “Modulators of YAP1 expression” (Ionis Pharmaceuticals, Inc., priority 2019, dated 2022).
Strand notation (5' to 3'): a small letter for the sugar, then the base; units joined by * are phosphorothioate-linked, units joined directly phosphodiester-linked; [ ] holds rarer units or linkages, { } end groups; capitals alone tell only the bases. e = 2'-O-(2-methoxyethyl) (MOE); k = constrained ethyl (cEt); [5mC] = 5-methylcytosine; d = 2'-deoxy (DNA); m = 2'-O-methyl

System: Yap1 mRNA
Test: Dose-dependent inhibition of human Yap1 in SNU-449 cells (Example 9, RTS36584)
Assay type: cell-based
Details: free uptake; for % UTC (Yap1 mRNA): approximately 48 hours; for IC50: linear regression on a log/linear plot
Experimental: Modified oligonucleotides described in the studies above were tested at various doses in SNU-449 cells. Cultured SNU-449 cells at a density of 10,000 cells per well were treated using free uptake with modified oligonucleotides diluted to concentrations described in the tables below. After approximately 48 hours, Yap1 mRNA levels were measured as previously described using the Human Yap1 primer-probe set RTS36584. Yap1 mRNA levels were normalized to total RNA content, as measured by RIBOGREEN®. Results are presented in the tables below as percent control of the amount of Yap1 mRNA relative to untreated control cells (% UTC). IC50s were calculated using a linear regression on a log/linear plot of the data in excel.

Substance	% UTC (Yap1 mRNA) (31.3 nM) [% UTC]	% UTC (Yap1 mRNA) (125.0 nM) [% UTC]	% UTC (Yap1 mRNA) (500.0 nM) [% UTC]	% UTC (Yap1 mRNA) (2000.00 nM) [% UTC]	IC50 [nM]
1198398 (G_{ks}^{m}C_{ds}A_{ds}C_{ds}T_{ds}T_{ds}T_{ds}T_{ds}A_{ds}^{m}C_{ds}A_{ds}T_{ks}T_{es}A_{ks}G_{es}G_{k}; cEt, 2'-MOE, 5-methylcytosine, phosphorothioate modifications, as printed in the source, key not given here) [compound 1198398]	73	55	33	18	200
1198202 (kG*kA*dA*dA*dT*dT*dG*dT*d[5mC]*dT*d[5mC]*eA*eT*eG*k[5mC]*k[5mC]; antisense) [compound 1198202]	83	46	16	5	100
1198911 (kG*kA*dG*dG*dT*dA*dT*dA*dA*d[5mC]*dT*kG*dG*kG*d[5mC]*kA; antisense) [compound 1198911]	62	31	12	7	50
1198569 (CACTTTTACATTAGGA; modified gapmer, chemistry not fully specified) [compound 1198569]	71	45	22	14	100
1095481 (kT*kG*dA*dG*dG*dT*dA*dT*dA*dA*d[5mC]*dT*kG*eG*kG*e[5mC]) [compound 1095481]	73	47	16	8	100
1198371 (kA*dT*dT*dG*dT*d[5mC]*dT*d[5mC]*dA*dT*dG*k[5mC]*e[5mC]*kT*eT*kA; antisense) [compound 1198371]	85	66	46	21	300
1198900 (kA*kG*dA*dG*dT*dA*dT*dG*dT*dG*dG*k[5mC]*dA*kA*dT*kA; antisense) [compound 1198900]	69	36	18	7	100
1197178 (kA*kA*kT*dT*dG*dT*d[5mC]*dT*d[5mC]*dA*dT*dG*d[5mC]*k[5mC]*kT*kT; antisense) [compound 1197178]	64	36	14	4	100
1200798 (kT*kA*kT*dT*dA*mG*dA*dG*dT*dA*dT*dG*dT*kG*kG*k[5mC]; antisense) [compound 1200798]	77	44	17	7	100
1198553 (kT*kA*kG*dA*dG*dT*dA*dT*dG*dT*dG*dG*k[5mC]*kA*kA*eT; antisense) [compound 1198553]	65	38	19	6	100
1197216 (kA*kA*kA*dG*dT*dG*dT*dA*dT*dG*dT*d[5mC]*dA*kG*kA*kA; antisense) [compound 1197216]	66	39	15	4	100
1198243 (kG*kA*dT*dT*dT*dA*dG*dG*dA*dT*dG*e[5mC]*eA*eT*kG*kG; antisense) [compound 1198243]	55	28	10	5	< 30
1074462 (kG*kG*kA*dA*dA*dT*dT*dG*dT*d[5mC]*dT*d[5mC]*dA*kT*kG*k[5mC]; antisense) [compound 1074462]	90	38	13	3	100
1198409 (kA*dG*dT*dG*d[5mC]*dT*dT*dT*dG*dG*dA*kA*eG*kA*eT*k[5mC]; antisense) [compound 1198409]	100	68	45	27	400
1198422 (k[5mC]*dT*dT*dA*dT*dA*dT*dG*dG*dT*dT*kT*eT*kG*eT*kG) [compound 1198422]	88	60	30	19	200
1198507 (kT*kT*dA*dT*dA*dT*dG*dG*dT*dT*dT*eT*kG*eT*kG*eT; antisense) [compound 1198507]	83	57	29	13	200
1198698 (kA*kA*dG*dT*dG*dT*dA*dT*dG*dT*d[5mC]*dA*kG*eA*kA*eG) [compound 1198698]	55	29	8	2	30
1198423 (TCTTATATGGTTTTGT; all C 5-methyl, all phosphorothioate, sugars by position not given here; cEt/MOE mixed gapmer, notation at position 4 garbled) [compound 1198423]	58	35	15	6	50
1198656 (kG*k[5mC]*dA*d[5mC]*dT*dT*dT*dT*dA*d[5mC]*dA*dT*kT*eA*kG*eG; antisense) [compound 1198656]	55	22	8	3	< 30
1198856 (k[5mC]*kT*dT*dA*dT*dA*dT*dG*dG*dT*dT*kT*eT*kG*eT*kG; antisense) [compound 1198856]	72	55	24	7	100
1198528 (kT*kA*dA*dA*dG*dT*dG*dT*dA*dT*dG*eT*k[5mC]*eA*kG*eA; antisense) [compound 1198528]	87	54	30	11	200
1198268 (kA*kA*dG*dT*dG*dT*dA*dT*dG*dT*d[5mC]*eA*eG*eA*kA*kG; antisense) [compound 1198268]	83	52	17	5	100
1198557 (kA*kT*kA*dT*dT*dA*dG*dA*dG*dT*dA*dT*kG*kT*kG*eG; antisense) [compound 1198557]	81	52	26	11	200
1198799 (k[5mC]*eT*kA*dA*dG*dT*dA*dA*dG*dG*dT*dT*eT*e[5mC]*k[5mC]*k[5mC]; antisense) [compound 1198799]	62	35	13	4	100
1198814 (kA*kG*dA*dG*dT*dA*dT*dG*dT*dG*dG*k[5mC]*eA*kA*eT*kA) [compound 1198814]	63	25	6	3	40
1197313 (kA*kG*kT*dG*mU*dA*dT*dG*dT*d[5mC]*dA*dG*dA*kA*kG*kA; antisense) [compound 1197313]	71	38	16	6	100
1200797 (kA*kT*kT*dA*dG*mA*dG*dT*dA*dT*dG*dT*dG*kG*k[5mC]*kA; antisense) [compound 1200797]	84	52	23	11	200
1198492 (kG*k[5mC]*dT*dT*dT*dG*dG*dA*dA*dG*dA*eT*k[5mC]*eT*kG*eA; antisense) [compound 1198492]	67	39	19	10	100
1198917 (k[5mC]*kA*d[5mC]*dT*dT*dT*dT*dA*d[5mC]*dA*dT*kT*dA*kG*dG*kA; antisense) [compound 1198917]	81	37	12	6	100
1198287 (kA*kA*kA*dT*dT*dG*dT*d[5mC]*dT*d[5mC]*dA*dT*kG*e[5mC]*k[5mC]*eT; antisense) [compound 1198287]	95	68	36	16	300
